The text below walks through data of patent US20040229942A1, “Analeptic and antidepressant combinations” (Cephalon Inc, priority 2003, published 2004).

For test [1], the system named is major depressive disorder. Conditions: at 6 weeks; cited from earlier work.
For test [2], the system named is patients previously diagnosed with MDD (single episode or recurrent). In words: Clinical study: modafinil started together with an SSRI (fluoxetine or paroxetine) in MDD patients, depressive symptom assessment (HAMD-21, HAMD-31, response, remission). The note with it: human, in vivo. Here is the method: Eligible patients were previously diagnosed with MDD (single episode or recurrent), […] had significant fatigue (Fatigue Severity Scale [FSS] score of greater than or equal to 4), and had not taken antidepressant therapy for greater than or equal to 4 weeks. Patients were evaluated at screening, baseline (shown in Table 1), and weeks 1, 2, 3, 4, 5, and 6.
Patients were then started on a combination of an SSRI and modafinil.
Modafinil was initiated at 100 mg/day for 3 days and then titrated to 200 mg/day, depending on response and tolerability. SSRI therapy was either fluoxetine or paroxetine administered at 20 mg/day for 6 weeks.
Depressive symptom changes were analyzed using HAMD-31, each of which were videotaped and rated independently, and HAMD-21 total score evaluations. HAMD-21 total score analyses were also performed to evaluate response and remission rates. Changes in fatigue were assessed using the FSS. A fatigue response was defined as an FSS score of less than 4 at any post-baseline visit. […] Subjective sleepiness was assessed using the Epworth Sleepiness Scale (ESS). […] Symptoms associated with depression, including fatigue, mood, motivation, and concentration, were evaluated using patient-assessed Visual Analogue Scales (VAS).
Continuous variables were analyzed using a paired t-test for normally distributed data or Wilcoxon signed rank test for non-normal data. […]

A further test relates to rats. The note with it: rats (Touret et al., 1995; Edgar and Seidel, 1997); cited from earlier work.
The test system of another test is cats. The note with it: cats (Lin et al., 1992); cited from earlier work.
The next test concerns canines. The note with it: canines (Shelton et al., 1995); cited from earlier work.
Another test relates to non-human primates. Conditions: non-human primates (Hernant et al, 1991); cited from earlier work.

As to `CNCCC(Oc1ccc(C(F)(F)F)cc1)c1ccccc1` (stereo not drawn) [fluoxetine], in test [1], the “response to antidepressant therapy” value is “about 50%”.

Consider `NC(=O)C[S+]([O-])C(c1ccccc1)c1ccccc1` (stereo not drawn) [Modafinil, 2-(benzhydrylsulfinyl) acetamide], for which, in test [2], the “overall conclusion on adjuvant effect in patients with depression and significant fatigue” value was “rapid-acting and effective adjuvant medication”. For the same compound, the wakefulness entry in the test on rats, in the test with cats, in the test on canines and with non-human primates was “promotes wakefulness” throughout.
